Experimental data reported in patent publication US20160264932A1, “METHOD FOR PREPARING CULTURE MEDIUM FOR CULTURING PLANT TISSUE, METHOD FOR CULTURING PLANT TISSUE, STERILIZING AGENT, MICROBICIDAL AGENT, AND CULTURE MEDIUM COMPOSITION FOR CULTURING PLANT TISSUE” (priority 2013, published 2016).

Experiments:
Format in all cases: cell-based
[1] = tested on: S3 strain, presumed to be Serratia sp.; assay: Sterilizing effect of microbicidal liquids in the inoculating process (FIG. 9), S3; settings: inoculated on potato explant; explant treated with microbicidal liquid (Ox 200 mg/L or higher; Nata 10000 mg/L or higher)
Procedure: (§1) An experiment was conducted to determine how the sterilizing effect after inoculation is related to the concentrations and combination of the agents used in the microbicidal liquid for explants and the microbicidal liquid for culture vessels. The experimental condition was as follows:
(§2) Solid culture medium: dosed with Otsuka-A
(§3) Sterilizing method: autoclave
(§4) Method of inoculation of bacteria: on culture medium surface [as for “B5” and “S3”, 50 μL per test tube of the bacterial suspension was dropped onto the surface of the culture medium; and as for “An”, 10 mg per test tube of either a conidial powder or a conidial powder diluted with a-starch to a predetermined dilution ratio was poured onto the culture medium]; or on explant [as for “B5” and “S3”, the explant was immersed in the bacterial suspension (whereby 10 μL per explant was attached); and as for “An”, the explant was coated with either a conidial powder or a conidial powder diluted with a-starch to a predetermined dilution ratio (whereby 5 mg per explant was attached)]

[2] = tested on: microbial colony formation (bacteria, filamentous fungi); assay: Microbial recontamination of sterilized solid culture medium after solidification (FIG. 8)
Procedure: A sterilized culture medium (Otsuka-A solid culture medium) was placed in 50 test tubes held in a tube stand and kept intact on a standard laboratory table (at temperatures of 14-24° C.), and the temporal change in the degree of microbial colony formation was investigated.

[3] = tested on: An (filamentous fungus, presumed to be Aspergillus niger complex); assay: Sterilizing effect of microbicidal liquids in the inoculating process (FIG. 9), An; settings: bacteria inoculated on potato explant, explant treated, 14 days
Procedure: as §1, §2, §3, §4

external bacteria = assay: Occurrence rate of microbial contamination of liquid culture medium after sterilization (FIG. 14); settings: explants inoculated in a common room, no bacteria inoculated
Procedure: The contamination rate by external bacteria after sterilization of a liquid culture medium was investigated. In any cases, the result was obtained under the condition that the inoculation of explants was performed in a common room with no bacteria inoculated. […] The microbial contamination rate increased when any one of the following agents was omitted: SE-P, Nisin, Ox, Nata, Cap, Imp10 and Cl7.

[4] = tested on: B5 strain, presumed to be Bacillus subtilis; assay: Sterilizing effect of microbicidal liquids in the inoculating process (FIG. 9), B5; settings: inoculated on potato explant; explant treated with microbicidal liquid (Cap or Nata 10000 mg/L or higher)
Procedure: as §1, §2, §3, §4

plant bodies = assay: Influence of agent concentration on growth of plant (solid culture medium, FIG. 6); settings: 30 days
Excerpt: The influence of a change in the concentrations of the agents used for sterilizing the culture medium on the growth of plants was investigated. The culture condition in this experiment was as follows:
Culture medium components: solid culture medium dosed with Otsuka-A
Number of plant bodies: 10
Numerical values: average±standard deviation
Sterilizing method: one-time dosing mode
Inoculating method (Culturing method): the method shown in FIG. 4 was used, with SE-P2000Cl140/SE-P2000Cl140 as the first/second microbicidal liquids, respectively.
In FIG. 6, the “Autoclave (Conventional Method)” indicates comparative examples, in which an explant which had undergone a microbicidal treatment in an autoclave was placed in a liquid culture medium and cultured in a clean bench.

In the case of `C[C@@H]1C/C=C/C=C/C=C/C=C/[C@H](O[C@@H]2O[C@H](C)[C@@H](O)[C@H](N)[C@@H]2O)C[C@@H]2O[C@](O)(C[C@@H](O)C[C@H]3O[C@@H]3/C=C/C(=O)O1)C[C@H](O)[C@H]2C(=O)O` [Natamycin], the “formation of S3 colonies” value [1] is reported as “could not prevent”, the “open storage of the culture” value ([2]; Natamycin in addition to P1670, Nisaplin and wettable powder STARNER, no ZonenC) is reported as “open storage of the culture was not possible” and the “newly invasion of filamentous fungi” value ([2]; used in addition to P1670, Nisaplin and wettable powder STARNER) is reported as “dramatically decreased”. The “concentration in microbicidal liquid preventing An colony formation to some extent” value [3] was at least 10000 mg/L, the “microbial contamination rate when the agent was omitted” value (external bacteria) was “increased” and the “formation of B5 colonies” value [4] was “could not prevent”. The “concentration that did not negatively affect growth” value (plant bodies) was at most 100 µg/mL.
With Egg-white lysozyme the “need of adding the agent to prevent microbial contamination” value (external bacteria) was “not necessary”.
